Read-outs that look alike come from different tables or passages of the source.
Assays:
MDA-MB-231 xenografts = assay: MDA-MB-231 xenograft in athymic mice; format: in vivo
Protocol: Mice were sheltered in the animal facility of Sri Ramachandra Medical College and Research Institute (Chennai, India), which has been certified as a pathogen-free animal house for performing mice experiments. All the methods were carried out according to the IAEC guidelines and regulations. Experimental procedures were framed and approved by the Institutional Animal Ethical Committee (IAEC) (IAEC approval number: IAEC/57/SRIHER/639/2019). The entire study was in accordance with the ARRIVE guidelines to ensure the safety of the animals. The sizes of the mice groups were chosen in accordance with statistical significance; the measurements and analysis were performed in an unbiased manner.
4–6 week-old female athymic mice were transplanted with MDA-MB-231 triple-negative breast tumor cells. The growth media with MDA-MB-231 cells and Matrigel (BD Biosciences) at a 1:1 ratio was mixed and injected into mice. The tumor lengths and widths were measured with an electronic caliper 2–3 times a week. The tumor volume was calculated using the formula: (length × width^2)/2. All of the mice were randomized after 10 days, as the tumor volume reached approximately 80–90 mm^3. A total of 25 mice were sorted into 5 treatment groups, followed by a compound treatment (SM216, SM396, SM949, and ABT199) or vehicle (n = 5 for each group). The drug compounds were formulated in PBS and administrated as i.p doses (100 mg/Kg w) for two schedules per week. Tumor growth inhibition (TGImax) was calculated using the following equation: (1) Tumor Growth Inhibition =1−mean of volume of treated at day x−mean of volume treated at day 0/mean of volume of control at day x−mean of volume of control at day 0×100
As the tumor size exceeded 600 mm^3, we euthanized the mice for ethical reasons. The euthanasia procedure used was carbon dioxide asphyxiation followed by cervical dislocation. The mean of the tumor volume ± SEM for different time points was represented until we sacrificed at least one mouse in a group.
To test the in vivo anti-cancer efficacy of the novel small molecules viz. SM216, SM396, and SM949, 4–6 weeks old female athymic mice were xenografted with MDA-MB-231 cells on the mammary fat pads and palpable tumors were induced. […] Tumor volumes were measured at regular intervals and the data were tabulated. […] The growth kinetics and maximal tumor growth inhibition (TGImax) are depicted as tumor volumes (five groups of mice treated with different drugs) in Figure 6e,f. The average tumor volume for all groups on day 0 of treatment was 92.77 mm^3. We observed that all three lead molecules inhibited tumor growth efficiently compared to the vehicle control. […] These compounds achieved regression of 60% after 20 days of treatment. […] Moreover, these compounds were well tolerated with no weight loss and hemolysis in all treatment groups. The survival was 100% for all treatment mice groups until the termination of the study. […] A decrease in the expression of PCNA was observed upon treatment with SM396 compared to the vehicle control.

BT549 cells = assay: MTT cell viability assay, BT549; format: cell-based; conditions: Homo sapiens
Protocol: An MTT (3-(4,5-dimethylthiazol-2-yl)-2,5-diphenyltetrazolium bromide)-based colorimetric assay was performed to measure the cell viability. On a 96-well plate, cells were seeded at a density of 3000–5000 cells/well. The cell number for the assay was decided based on the exponential growth of untreated cells. The cells were treated with compounds for 72 h followed by incubation with MTT for 4 h at 37 °C. The formazan crystals were dissolved in DMSO and absorbance was measured at 540 nm. The percentage viability was calculated as % cell viability = (OD treated cells/OD control cells) × 100, and the IC50 was estimated by curve-fitting using the non-linear regression of a dose–response curve. The experiments were repeated at least two to three times.
The top 29 lead molecules, guided by the in silico results, were subjected to further in vitro validation by assessing the cellular cytotoxicity in both cancer (Figure 3a) and normal cell lines (Supplementary Figure S2a) using the MTT assay. Moreover, we performed MTT (Supplementary Figure S3c) and Annexin V assays on an additional cell line, BT549, a triple-negative breast cancer model, to validate the activity of the compounds (Supplementary Figure S4). […] We also provided the AUC plots for the top three compounds for a better understanding of the activity (Supplementary Figure S5). […]

IC50 (BT549 cells; BT-549, Supplementary Figure S3c legend, read-out: IC50 (dose-response curve fitting)): 7.19 µM
IC50 (BT549 cells; BT-549, read-out: IC50 (non-linear regression of dose-response curves)): 7.2 µM
SMILES: CC1(C)CCC(CN2CCN(c3ccc(C(=O)NS(=O)(=O)c4ccc(NCC5CCOCC5)c([N+](=O)[O-])c4)c(Oc4cnc5[nH]ccc5c4)c3)CC2)=C(c2ccc(Cl)cc2)C1 [ABT-199, venetoclax]
Tumor Volume, Mean (MDA-MB-231 xenografts; Day 0, i.p. 100 mg/kg, two schedules per week): 95.35 mm^3
Tumor Volume, Mean (MDA-MB-231 xenografts; Day 6, i.p. 100 mg/kg): 162.15 mm^3
Tumor Volume, Mean (MDA-MB-231 xenografts; Day 9, i.p. 100 mg/kg (column head printed SEM)): 313.94 mm^3
Tumor Volume, Mean (MDA-MB-231 xenografts; Day 13, i.p. 100 mg/kg): 313.03 mm^3
Tumor Volume, Mean (MDA-MB-231 xenografts; Day 15, upon 4 doses, i.p. 100 mg/kg): 371.94 mm^3
Tumor Volume, Mean (MDA-MB-231 xenografts; Day 17, i.p. 100 mg/kg): 424.83 mm^3
Tumor Volume, Mean (MDA-MB-231 xenografts; Day 20, i.p. 100 mg/kg): 382.6 mm^3

From publication PMC9657696, “Novel BH4-BCL-2 Domain Antagonists Induce BCL-2-Mediated Apoptosis in Triple-Negative Breast Cancer” (Cancers, 2022)
